Where two headings read alike, the source gives them in different places.
Assays:
[1] = tested on: Jurkat HIV-luciferase clones; assay: Jurkat latency reversal assay; assay type: cell-based; details: Homo sapiens, 48 h; Jurkat latency reversal assay potency; read-out: Jurkat pEC50 (converted)
How it was run: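 Pooled Jurkat clones C16, 115 and N6, each carrying one or two integrated HIV-luciferase proviruses and kept in 500 nM EFV, were exposed to 3-fold, 14-point compound titrations in duplicate (10 μM top, 0.5% DMSO) for 48 h at 37° C. Luciferase luminescence was fitted by four-parameter logistic regression for EC50 and maximal percent activation versus vehicle.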

cIAP1-BIR3 = cIAP1-BIR3 (Homo sapiens (Human), UniProt Q13490); assay: BIR binding assay (FRET competition), cIAP1 BIR3; details: for cIAP1 BIR3 vs BIR2 separation window: fold separation (FS) for cIAP1
How it was run: (§1)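 His-tagged domains (50 nM cIAP1-BIR3, 325 nM cIAP2-BIR2, 325 nM cIAP1-BIR2, 100 nM XIAP-BIR3) compete with compounds for a 200 nM AlexaFluor647-labelled SMAC/DIABLO peptide in HEPES buffer, pH 7.4, for 60 min. Then 2 nM Eu-W1024 is added for 30 min. The 615/665 nm ratio is fit by four-parameter fit to give IC50.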

cIAP1-BIR2 = cIAP1-BIR2 (Homo sapiens (Human), UniProt Q13490); assay: BIR binding assay (FRET competition), cIAP1 BIR2
How it was run: as §1

cIAP2-BIR3 = cIAP2-BIR3 (Homo sapiens (Human), UniProt Q13489); assay: BIR binding assay (FRET competition), cIAP2 BIR3; details: for cIAP2 BIR3 vs BIR2 separation window: fold separation (FS) for cIAP2
cIAP2-BIR2 = cIAP2-BIR2 (Homo sapiens (Human), UniProt Q13489); assay: BIR binding assay (FRET competition), cIAP2 BIR2
How it was run: as §1

XIAP-BIR3 = XIAP-BIR3 (Homo sapiens (Human), UniProt P98170); assay: BIR binding assay (FRET competition), XIAP BIR3; details: for XIAP BIR3 vs BIR2 separation window: fold separation (FS) for XIAP
How it was run: as §1

XIAP-BIR2 = XIAP-BIR2 (Homo sapiens (Human), UniProt P98170); assay: BIR binding assay (FRET competition), XIAP BIR2
Description: The BIR domain binding assays are FRET based competition assays that utilize His-tagged versions of each of the BIR2 and BIR3 domains from cIAP1, cIAP2, and XIAP (each domain assayed separately) each at a custom optimal concentration and a probe, 200 nM SMAC/DIABLO peptide AVPIAQKSE labelled with AlexaFluor647 (part #crb 1110326h, Discovery Peptides). The assay is conducted in 50 mM HEPES, […], 1 mM CHAPS, 5% Glycerol, 1 mM DTT, in dI water with a final pH of 7.4 and final volume of 20 uL. Final protein domain concentrations are: 50 nM cIAP1-BIR3 (Part #APT-11-370 Reaction Biology), 100 nM XIAP-BIR3 (Part #APT-11-351 Reaction Biology), 200 nM XIAP-BIR2 (Part #APT-11-470 Reaction Biology), 325 nM cIAP2-BIR2 (Part #APT-11-489 Reaction Biology), 50 nM cIAP2-BIR3 (Part #APT-11-372 Reaction Biology), 325 nM cIAP1-BIR2 (Part #APT-11-487 Reaction Biology). Compounds were plated using a HP Tecan D300 printer in a final total volume of 202 nl and DMSO concentration normalized across the 15-point, 3-fold dilution series. Peptide and probe were prepared at 2× relative to the concentrations above in binding buffer, 10 uL added to the prepared compound plates, and incubated for 60 minutes. LANCE Eu-W1024 (part #AD0401 Perkin Elmer #, vendor) was prepared at 2× concentration in binding buffer for final concentration of 2 nM, 10 uL added to each well, and plates incubated for 30 minutes. Plates were read on an ENVISION multifunction plate reader with […] laser excitation to obtain the 615 nm/665 nm emission ratio as indicative of probe:protein proximity. Data was analyzed using GraphPad PRISM and curves fit using log(inhibitor) vs. response—Variable slope (four […] method to obtain IC50 and pIC50 values.

[2] = FRET competition binding, read-out: XIAP BIR2 (pIC50) (converted)
[3] = FRET competition, read-out: XIAP BIR2 (pIC50) (converted)

cIAP2-BIR3, sequence (Q13489 238-349): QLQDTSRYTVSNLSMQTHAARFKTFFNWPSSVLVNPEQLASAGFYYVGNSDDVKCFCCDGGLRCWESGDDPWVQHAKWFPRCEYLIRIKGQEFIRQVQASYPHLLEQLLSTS
XIAP-BIR2, sequence (P98170 124-240): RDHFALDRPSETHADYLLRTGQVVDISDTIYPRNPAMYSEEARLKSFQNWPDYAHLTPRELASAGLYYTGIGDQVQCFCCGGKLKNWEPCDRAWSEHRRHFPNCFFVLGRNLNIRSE
cIAP2-BIR2, sequence (Q13489 158-242): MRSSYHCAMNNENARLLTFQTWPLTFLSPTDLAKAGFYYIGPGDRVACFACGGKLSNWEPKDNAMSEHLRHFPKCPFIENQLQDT
cIAP1-BIR3, sequence (Q13490 253-363): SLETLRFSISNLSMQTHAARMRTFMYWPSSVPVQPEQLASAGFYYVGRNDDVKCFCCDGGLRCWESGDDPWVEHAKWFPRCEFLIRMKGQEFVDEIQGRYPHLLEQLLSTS
XIAP-BIR3, sequence (P98170 241-356): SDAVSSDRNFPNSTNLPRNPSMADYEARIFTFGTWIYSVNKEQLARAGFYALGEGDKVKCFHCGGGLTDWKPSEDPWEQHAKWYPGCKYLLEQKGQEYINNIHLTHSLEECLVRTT
cIAP1-BIR2, sequence (Q13490 173-257): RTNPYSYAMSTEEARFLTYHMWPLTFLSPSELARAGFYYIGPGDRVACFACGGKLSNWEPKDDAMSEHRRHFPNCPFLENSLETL

| SMILES | EC50 [1] [nM] | IC50 (cIAP1-BIR3) [nM] | cIAP1 BIR3 vs BIR2 separation window (cIAP1-BIR3) | IC50 (cIAP1-BIR2) [nM] | IC50 (cIAP2-BIR3) [nM] | cIAP2 BIR3 vs BIR2 separation window (cIAP2-BIR3) | IC50 (cIAP2-BIR2) [nM] | IC50 (XIAP-BIR3) [nM] | XIAP BIR3 vs BIR2 separation window (XIAP-BIR3) | IC50 (XIAP-BIR2; [2]) [nM] | IC50 (XIAP-BIR2; [3]) [nM] | IC50 (XIAP-BIR2) [nM] | XIAP BIR2 (pIC50) (XIAP-BIR2; FRET competition binding) |
| --- | --- | --- | --- | --- | --- | --- | --- | --- | --- | --- | --- | --- | --- |
| C[C@@H]1CN(CC(=O)N2CC(C)(C)c3[nH]c(=O)c(Cc4ccc(F)cc4)cc32)[C@@H](CN2CCN(C(=O)COCCOCCOCC(=O)N3CCN(C[C@H]4CN[C@H](C)CN4CC(=O)N4CC(C)(C)c5[nH]c(=O)c(Cc6ccc(F)cc6)cc54)[C@H](C)C3)C[C@H]2C)CN1 (stereo in doubt) [Example 6, 1,1′-(2,2′-((3R,3′R,6R,6′R)-(((2R,2′R)-(2,2′-((oxybis(ethane-2,1-diyl))bis(oxy))bis(acetyl))bis(2-methylpiperazine-4,1-diyl))bis(methylene))bis(3-methylpiperazine-6,1-diyl))bis(acetyl))bis(6-(4-fluorobenzyl)-3,3-dimethyl-1,2,3,4-tetrahydro-5H-pyrrolo[3,2-b]pyridin-5-one)] | 63.1 to 316 | 1.38 to 7.94 | +++ (10,000>FS>1,000) | 22.4 to 1000 | 1.38 to 7.94 | +++ (10,000>FS>1,000) | 22.4 to 1000 | 1.38 to 7.94 | ++++ (FS>10,000) | 10000 to 51300 | – | – | – |
| C[C@@H]1CN(CC(=O)N2CC(C)(C)c3ncc(Oc4ccc(F)cc4)cc32)[C@@H](CN2CCO[C@H](COc3cccc(OC[C@@H]4CN(C[C@H]5CN[C@H](C)CN5CC(=O)N5CC(C)(C)c6ncc(Oc7ccc(F)cc7)cc65)CCO4)c3)C2)CN1 [Compound 142, 1-[6-(4-fluorophenoxy)-3,3-dimethyl-2H-pyrrolo[3,2-b]pyridin-1-yl]-2-[(2R,5R)-2-[[(2S)-2-[[3-[[(2S)-4-[[(2R,5R)-1-[2-[6-(4-fluorophenoxy)-3,3-dimethyl-2H-pyrrolo[3,2-b]pyridin-1-yl]-2-oxo-ethyl]-5-methyl-piperazin-2-yl]methyl]morpholin-2-yl]methoxy]phenoxy]methyl]morpholin-4-yl]methyl]-5-methyl-piperazin-1-yl]ethanone] | 12.6 to 63.1 | 15.8 to 31.6 | +++ (10,000>FS>1,000) | 10000 to 51300 | 15.8 to 31.6 | – | – | 31.6 to 501 | +++ (10,000>FS>1,000) | – | 10000 to 51300 | – | – |
| C[C@@H]1CN(CC(=O)N2CC(C)(C)c3[nH]c(=O)c(Oc4ccc(Cl)cc4)cc32)[C@@H](CN2CCO[C@H](C(=O)NCc3ccc(CNC(=O)[C@@H]4CN(C[C@H]5CN[C@H](C)CN5CC(=O)N5CC(C)(C)c6[nH]c(=O)c(Oc7ccc(Cl)cc7)cc65)CCO4)cc3)C2)CN1 [Compound 182, (2S,2′S)-N,N′-(1,4-phenylenebis(methylene)) bis(4-(((2R,5R)-1-(2-(6-(4-chlorophenoxy)-3,3-dimethyl-5-oxo-2,3,4,5-tetrahydro-1H-pyrrolo[3,2-b]pyridin-1-yl)-2-oxoethyl)-5-methylpiperazin-2-yl)methyl)morpholine-2-carboxamide)] | 63.1 to 316 | 7.94 to 15.8 | – | – | 1.38 to 7.94 | +++ (10,000>FS>1,000) | 3160 to 10000 | 31.6 to 501 | +++ (10,000>FS>1,000) | – | 10000 to 51300 | – | – |
| C[C@@H]1CN(CC(=O)N2CC(C)(C)c3[nH]c(=O)c(Cc4ccc(F)cc4)cc32)[C@@H](CN2CCO[C@H](COc3ccc(Oc4cccc(Oc5ccc(OC[C@@H]6CN(C[C@H]7CN[C@H](C)CN7CC(=O)N7CC(C)(C)c8[nH]c(=O)c(Cc9ccc(F)cc9)cc87)CCO6)cc5)c4)cc3)C2)CN1 [Example 60, 1,1′-(2,2′-((3R,3′R,6R,6′R)-(((2S,2'S)-((((1,3-phenylenebis(oxy))bis(4,1-phenylene))bis(oxy))bis(methylene))bis(morpholine-2,4-diyl))bis(methylene))bis(3-methylpiperazine-6,1-diyl))bis(acetyl))bis(6-(4-fluorobenzyl)-3,3-dimethyl-1,2,3,4-tetrahydro-5H-pyrrolo[3,2-b]pyridin-5-one)] | 12.6 to 63.1 | 31.6 to 501 | – | – | 15.8 to 31.6 | ++++ (FS>10,000) | 10000 to 51300 | 31.6 to 501 | ++++ (FS>10,000) | – | – | 10000 to 51300 | – |
| C[C@@H]1CN(CC(=O)N2CC(C)(C)c3[nH]c(=O)c(Cc4ccc(F)cc4)cc32)[C@@H](CN2CCO[C@H](COc3ccccc3Cc3ccccc3OC[C@@H]3CN(C[C@H]4CN[C@H](C)CN4CC(=O)N4CC(C)(C)c5[nH]c(=O)c(Cc6ccc(F)cc6)cc54)CCO3)C2)CN1 [Example 66, 1,1′-(2,2′-((3R,3′R,6R,6′R)-(((2S,2'S)-(((methylenebis(2,1-phenylene))bis(oxy))bis(methylene))bis(morpholine-2,4-diyl))bis(methylene))bis(3-methylpiperazine-6,1-diyl))bis(acetyl))bis(6-(4-fluorobenzyl)-3,3-dimethyl-1,2,3,4-tetrahydro-5H-pyrrolo[3,2-b]pyridin-5-one)] | 0.49 to 12.6 | 15.8 to 31.6 | – | – | 7.94 to 15.8 | – | – | 15.8 to 31.6 | ++++ (FS>10,000) | 10000 to 51300 | – | – | – |
| C[C@@H]1CN(CC(=O)N2CC(C)(C)c3[nH]c(=O)c(Cc4ccc(F)cc4)cc32)[C@@H](CN2CCO[C@H](COc3ccc(-c4ccccc4)c(OC[C@@H]4CN(C[C@H]5CN[C@H](C)CN5CC(=O)N5CC(C)(C)c6[nH]c(=O)c(Cc7ccc(F)cc7)cc65)CCO4)c3)C2)CN1 [Example 78, 1,1′-(2,2′-((3R,3′R,6R,6′R)-(((2S,2'S)—(([1,1′-biphenyl]-2,4-diylbis(oxy))bis(methylene))bis(morpholine-2,4-diyl))bis(methylene))bis(3-methylpiperazine-6,1-diyl))bis(acetyl))bis(6-(4-fluorobenzyl)-3,3-dimethyl-1,2,3,4-tetrahydro-5H-pyrrolo[3,2-b]pyridin-5-one)] | 12.6 to 63.1 | 1.38 to 7.94 | – | – | 1.38 to 7.94 | – | – | 7.94 to 15.8 | +++ (10,000>FS>1,000) | – | – | – | ++ (5.00<pIC50<=5.50) |
| C[C@@H]1CN(CC(=O)N2CC(C)(C)c3[nH]c(=O)c(Cc4ccc(F)cc4)cc32)[C@@H](CN2CCC(C(F)(F)COc3cccc(OCC(F)(F)C4CCN(C[C@H]5CN[C@H](C)CN5CC(=O)N5CC(C)(C)c6[nH]c(=O)c(Cc7ccc(F)cc7)cc65)CC4)c3)CC2)CN1 [Example 110, 1,1′-(2,2′-((3R,3′R,6R,6′R)-((((1,3-phenylenebis(oxy))bis(1,1-difluoroethane-2,1-diyl))bis(piperidine-4,1-diyl))bis(methylene))bis(3-methylpiperazine-6,1-diyl))bis(acetyl))bis(6-(4-fluorobenzyl)-3,3-dimethyl-1,2,3,4-tetrahydro-5H-pyrrolo[3,2-b]pyridin-5-one)] | 0.49 to 12.6 | 15.8 to 31.6 | – | – | 15.8 to 31.6 | – | – | 15.8 to 31.6 | ++++ (FS>10,000) | 10000 to 51300 | – | – | – |
